Reference: the NIST ThermoML archive (doi:10.1016/j.jct.2013.01.008)

Test: mn = molality of the nth substance listed, in mol/kg
Conditions: 101 kPa, Liquid; for mass density: Pycnometric method; for viscosity: Capillary tube (Ostwald / Ubbelohde) method

C[C@@H](O)[C@H](N)C(=O)O [L-threonine] + O
Conditions	mass density [kg/m3]	viscosity [mPa·s]
293.15 K, m1 = 0.025	999.31	–
293.15 K, m1 = 0.05	1000.36	–
293.15 K, m1 = 0.075	1001.39	–
293.15 K, m1 = 0.0999	1002.41	–
293.15 K, m1 = 0.1249	1003.41	–
293.15 K, m1 = 0.15	1004.39	–
293.15 K, m1 = 0.175	1005.36	–
293.15 K, m1 = 0.2	1006.31	–
298.15 K, m1 = 0.025	998.14	0.8981
298.15 K, m1 = 0.05	999.18	0.9057
298.15 K, m1 = 0.075	1000.22	0.9134
298.15 K, m1 = 0.0999	1001.23	0.9211
298.15 K, m1 = 0.1249	1002.23	0.9286
298.15 K, m1 = 0.15	1003.21	0.936
298.15 K, m1 = 0.175	1004.18	0.9434
298.15 K, m1 = 0.2	1005.12	0.9511
303.15 K, m1 = 0.025	996.75	0.8051
303.15 K, m1 = 0.05	997.8	0.8128
303.15 K, m1 = 0.075	998.83	0.8205
303.15 K, m1 = 0.0999	999.84	0.828
303.15 K, m1 = 0.1249	1000.83	0.8358
303.15 K, m1 = 0.15	1001.83	0.8434
303.15 K, m1 = 0.175	1002.79	0.851
303.15 K, m1 = 0.2	1003.74	0.8584
308.15 K, m1 = 0.025	995.14	0.7266
308.15 K, m1 = 0.05	996.19	0.7344
308.15 K, m1 = 0.075	997.23	0.7421
308.15 K, m1 = 0.0999	998.24	0.7496
308.15 K, m1 = 0.1249	999.24	0.7571
308.15 K, m1 = 0.15	1000.23	0.7645
308.15 K, m1 = 0.175	1001.2	0.7719
308.15 K, m1 = 0.2	1002.15	0.7792
313.15 K, m1 = 0.025	993.32	0.66
313.15 K, m1 = 0.05	994.38	0.6678
313.15 K, m1 = 0.075	995.42	0.6754
313.15 K, m1 = 0.0999	996.44	0.6828
313.15 K, m1 = 0.1249	997.44	0.6901
313.15 K, m1 = 0.15	998.43	0.6974
313.15 K, m1 = 0.175	999.4	0.7047
313.15 K, m1 = 0.2	1000.35	0.7119
318.15 K, m1 = 0.025	991.32	0.6044
318.15 K, m1 = 0.05	992.38	0.6121
318.15 K, m1 = 0.075	993.42	0.6196
318.15 K, m1 = 0.0999	994.45	0.6269
318.15 K, m1 = 0.1249	995.46	0.6341
318.15 K, m1 = 0.15	996.45	0.6413
318.15 K, m1 = 0.175	997.43	0.6485
318.15 K, m1 = 0.2	998.39	0.6556
